Source: patent US7166296B2, “Pharmaceutical formulations and ligands for use therein; mimetics for UEA-1” (Sarlan, Ltd., priority 2001, dated 2007)
≈ marks a conversion by molar mass, not a printed value. Counter-ions that a name gives are not always drawn. Non-standard residues stand in square brackets, D forms with d. Residues, ends and D or L forms follow the SMILES beside them. *: point of attachment. Galloyl = O=C(c1cc(O)c(O)c(O)c1)*

What was measured:
[1] = test system: UEA-1 binding sites on Caco-2 cell membrane preparations; assay: Single tier competition assay: inhibition of biotinylated UEA-1 binding, compound and biotinylated UEA-1 incubated together; parameters: species or system human; conditions: for Av % Inhibition / Avg % Inhibtion: Single Tier Assay; for Av % Inhibition: library MSI 22; for Avg % Inhibtion: library MSI 26; for IC 50 (ug/ml) 1st tier / IC50: Table 8, galloyl constructs; for IC50: read-out: IC 50 (uM) 1st tier (converted)
Procedure, shortened: (§1)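 Plates coated with Caco-2 membrane preparation (10 μg/ml, carbonate buffer pH 9.6) and BSA-blocked. Single tier: compound and biotinylated UEA-1 incubated together overnight. Two tier: compound incubated overnight with membranes first, biotinylated UEA-1 added next. Bound UEA-1 detected by streptavidin-HRP/OPD, OD490.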

[2] = test system: UEA-1 binding sites on Caco-2 cell membrane preparations; assay: Two tier competition assay: compound incubated alone with membranes, biotinylated UEA-1 added in next step; parameters: species or system human; conditions: for Av % Inhibition / Avg % Inhibition: Two Tier Assay; for Av % Inhibition: library MSI 22; for Avg % Inhibition: library MSI 26; for IC 50 (ug/ml) 2nd tier / IC50: Table 8, galloyl constructs; for IC50: read-out: IC 50 (uM) 2nd tier
Procedure, shortened: as §1

Row | SMILES | IC 50 (ug/ml) 1st tier [1] | IC50 [1] [µM] | IC 50 (ug/ml) 2nd tier [2] | IC50 [2] [µM] | further results
1 | CCC[C@H](CNC)N(C)C[C@@H](CC1CCCCC1)NC(=O)c1cc(O)c(O)c(O)c1 [D-Nve, D-chAla, Gallic Acid] |  |  |  |  | Av % Inhibition ([1]; 62.5 μg/ml): 22.0%; Av % Inhibition ([1]; 250 μg/ml): 47.8%; Av % Inhibition ([2]; 62.5 μg/ml): 20.6%; Av % Inhibition ([2]; 250 μg/ml): 48.5%
2 | CCOc1ccc(C[C@H](CNC)N(C)C[C@@H](CCCNC(=N)NS(=O)(=O)c2ccc(C)cc2)NC(=O)c2cc(O)c(O)c(O)c2)cc1 [D-Tyr (Et), D-Arg(Tos), Gallic Acid] |  |  |  |  | Av % Inhibition ([1]; 62.5 μg/ml): 27.2%; Av % Inhibition ([1]; 250 μg/ml): 48%; Av % Inhibition ([2]; 62.5 μg/ml): 30%; Av % Inhibition ([2]; 250 μg/ml): 61%
3 | CCOc1ccc(C[C@H](CNC)N(C)C[C@H](CC2CCCCC2)NC(=O)c2cc(O)c(O)c(O)c2)cc1 [D-Tyr (Et), L-chAla, Gallic Acid] |  |  |  |  | Av % Inhibition ([1]; 62.5 μg/ml): 8.5%; Av % Inhibition ([1]; 250 μg/ml): 33.3%; Av % Inhibition ([2]; 62.5 μg/ml): 31.8%; Av % Inhibition ([2]; 250 μg/ml): 52.7%
4 | COc1cc(C(=O)OCCCN2CCCN(CCCOC(=O)c3cc(OC)c(OC)c(OC)c3)CC2)cc(OC)c1OC [Dilazep dihydrochloride, reference compound] |  |  |  |  | Avg % Inhibtion ([1]; 62.5 μg/ml): 14.7%; Avg % Inhibtion ([1]; 250 μg/ml): 10.4%; Avg % Inhibition ([2]; 62.5 μg/ml): −25%; Avg % Inhibition ([2]; 250 μg/ml): −25%
5 | Oc1cc(O)c2c(c1)O[C@H](c1cc(O)c(O)c(O)c1)[C@H](O)C2 [Epigallocatechin, reference compound] |  |  |  |  | Avg % Inhibtion ([1]; 62.5 μg/ml): 10.1%; Avg % Inhibtion ([1]; 250 μg/ml): 0%; Avg % Inhibition ([2]; 62.5 μg/ml): −12%; Avg % Inhibition ([2]; 250 μg/ml): −10%
6 | O=C(O[C@@H]1Cc2c(O)cc(O)cc2O[C@H]1c1cc(O)c(O)c(O)c1)c1cc(O)c(O)c(O)c1 [Gallocatechin gallate, reference compound] |  |  |  |  | Avg % Inhibtion ([1]; 62.5 μg/ml): 54.6%; Avg % Inhibtion ([1]; 250 μg/ml): 33.6%; Avg % Inhibition ([2]; 62.5 μg/ml): 7%; Avg % Inhibition ([2]; 250 μg/ml): 14.1%
7 | CNC[C@H](Cc1ccc2ccccc2c1)N(C)C[C@@H](Cc1ccc2ccccc2c1)NC(=O)c1cc(O)c(O)c(O)c1 [L-NapAla, D-Napala, Gallic Acid] |  |  |  |  | Av % Inhibition ([1]; 62.5 μg/ml): −3%; Av % Inhibition ([1]; 250 μg/ml): 7%; Av % Inhibition ([2]; 62.5 μg/ml): 22.0%; Av % Inhibition ([2]; 250 μg/ml): 44.6%
8 | CNC[C@H](Cc1ccc2ccccc2c1)N(C)C[C@H](Cc1ccc(Cl)cc1)NC(=O)c1cc(O)c(O)c(O)c1 [L-NapAla, L-pCl-Phe, Gallic Acid] |  |  |  |  | Av % Inhibition ([1]; 62.5 μg/ml): 31.5%; Av % Inhibition ([1]; 250 μg/ml): 46.9%; Av % Inhibition ([2]; 62.5 μg/ml): 26.7%; Av % Inhibition ([2]; 250 μg/ml): 54.7%
9 | CCCCCCCCCCCCOC(=O)c1cc(O)c(O)c(O)c1 [Lauryl gallate, reference compound] |  |  |  |  | Avg % Inhibtion ([1]; 62.5 μg/ml): 39.1%; Avg % Inhibtion ([1]; 250 μg/ml): 22.5%; Avg % Inhibition ([2]; 62.5 μg/ml): 20.4%; Avg % Inhibition ([2]; 250 μg/ml): 47.9%
10 | CC(=O)N[C@H](CCCCNC(=O)c1cc(O)c(O)c(O)c1)C(=O)N[C@H](CCCCNC(=O)c1cc(O)c(O)c(O)c1)C(=O)N[C@H](CCCCNC(=O)c1cc(O)c(O)c(O)c1)C(=O)N[C@H](CCCCNC(=O)c1cc(O)c(O)c(O)c1)C(=O)N[C@H](CCCCNC(=O)c1cc(O)c(O)c(O)c1)C(N)=O [MSI 30 #8] (Ac-[dK](Galloyl)[dK](Galloyl)[dK](Galloyl)[dK](Galloyl)[dK](Galloyl)-NH2) | 70 µg/mL (≈ 47.9 µM) | 48 | 15 µg/mL (≈ 10.3 µM) | 10 | 
11 | NC(=O)[C@@H](CCCCNC(=O)c1cc(O)c(O)c(O)c1)NC(=O)[C@@H](CCCCNC(=O)c1cc(O)c(O)c(O)c1)NC(=O)[C@@H](CCCCNC(=O)c1cc(O)c(O)c(O)c1)NC(=O)[C@@H](CCCCNC(=O)c1cc(O)c(O)c(O)c1)NC(=O)[C@@H](CCCCNC(=O)c1cc(O)c(O)c(O)c1)NC(=O)c1cc(O)c(O)c(O)c1 [MSI 30 #10] (Galloyl-[dK](Galloyl)[dK](Galloyl)[dK](Galloyl)[dK](Galloyl)[dK](Galloyl)-NH2) | 23 µg/mL (≈ 14.6 µM) | 14 | 5 µg/mL (≈ 3.18 µM) | 3 | 
12 | CC(=O)N[C@H](CCCCNC(=O)c1cc(O)c(O)c(O)c1)C(=O)N[C@H](CCCCNC(=O)c1cc(O)c(O)c(O)c1)C(=O)N[C@H](CCCCNC(=O)c1cc(O)c(O)c(O)c1)C(=O)N[C@H](CCCCNC(=O)c1cc(O)c(O)c(O)c1)C(=O)N[C@H](CCCCNC(=O)c1cc(O)c(O)c(O)c1)C(=O)N[C@H](CCCCNC(=O)c1cc(O)c(O)c(O)c1)C(N)=O [MSI 30 #11] | 13 µg/mL (≈ 7.47 µM) | 7 | 2 µg/mL (≈ 1.15 µM) | 1 | 
13 | CC(=O)N[C@H](CCCCNC(=O)c1cc(O)c(O)c(O)c1)C(=O)N[C@H](CCCCNC(=O)c1cc(O)c(O)c(O)c1)C(=O)N[C@H](CCCCNC(=O)c1cc(O)c(O)c(O)c1)C(=O)N[C@H](CCCCNC(=O)c1cc(O)c(O)c(O)c1)C(=O)N[C@H](CCCCNC(=O)c1cc(O)c(O)c(O)c1)C(=O)N[C@H](CCCCNC(=O)c1cc(O)c(O)c(O)c1)C(=O)N[C@H](CCCCNC(=O)c1cc(O)c(O)c(O)c1)C(N)=O [MSI 30 #14] (Ac-[dK](Galloyl)[dK](Galloyl)[dK](Galloyl)[dK](Galloyl)[dK](Galloyl)[dK](Galloyl)[dK](Galloyl)-NH2) | 17 µg/mL (≈ 8.41 µM) | 8 | 9 µg/mL (≈ 4.45 µM) | 4 | 
14 | NC(=O)[C@@H](CCCCNC(=O)c1cc(O)c(O)c(O)c1)NC(=O)[C@@H](CCCCNC(=O)c1cc(O)c(O)c(O)c1)NC(=O)[C@@H](CCCCNC(=O)c1cc(O)c(O)c(O)c1)NC(=O)[C@@H](CCCCNC(=O)c1cc(O)c(O)c(O)c1)NC(=O)[C@@H](CCCCNC(=O)c1cc(O)c(O)c(O)c1)NC(=O)[C@@H](CCCCNC(=O)c1cc(O)c(O)c(O)c1)NC(=O)[C@@H](CCCCNC(=O)c1cc(O)c(O)c(O)c1)NC(=O)c1cc(O)c(O)c(O)c1 [MSI 30 #16] (Galloyl-[dK](Galloyl)[dK](Galloyl)[dK](Galloyl)[dK](Galloyl)[dK](Galloyl)[dK](Galloyl)[dK](Galloyl)-NH2) | 19 µg/mL (≈ 8.92 µM) | 9 | 8 µg/mL (≈ 3.75 µM) | 4 | 
15 | NC(=O)C(CCCCNC(=O)C(CCCCNC(=O)C(CCCCNC(=O)c1cc(O)c(O)c(O)c1)NC(=O)c1cc(O)c(O)c(O)c1)NC(=O)C(CCCCNC(=O)c1cc(O)c(O)c(O)c1)NC(=O)c1cc(O)c(O)c(O)c1)NC(=O)C(CCCCNC(=O)C(CCCCNC(=O)c1cc(O)c(O)c(O)c1)NC(=O)c1cc(O)c(O)c(O)c1)NC(=O)C(CCCCNC(=O)c1cc(O)c(O)c(O)c1)NC(=O)c1cc(O)c(O)c(O)c1 (stereo not shown) [MSI 30 #17] | 1st tier = 52nd tier = 5 ug/ml | 2 | 1st tier = 52nd tier = 5 ug/ml | 2 | 
16 | NC(=O)C(CNC(=O)C(CNC(=O)c1cc(O)c(O)c(O)c1)NC(=O)c1cc(O)c(O)c(O)c1)NC(=O)C(CNC(=O)c1cc(O)c(O)c(O)c1)NC(=O)c1cc(O)c(O)c(O)c1 (stereo not shown) [MSI 34 1π5] | 0.5 µg/mL (≈ 0.566 µM) | 0.5 | 1 µg/mL (≈ 1.13 µM) | 1 | 
17 | NC(=O)[C@H](CNC(=O)c1cc(O)c(O)c(O)c1)NC(=O)c1cc(O)c(O)c(O)c1 [MSI 34 #1] | 1 µg/mL (≈ 2.45 µM) | 4 | 0.8 µg/mL (≈ 1.96 µM) | 2 | 
18 | NC(=O)C(CCCNC(=O)c1cc(O)c(O)c(O)c1)NC(=O)c1cc(O)c(O)c(O)c1 (stereo not shown) [MSI 34 #3] | 2 µg/mL (≈ 4.59 µM) | 4 | 0.7 µg/mL (≈ 1.61 µM) | 2 | 
19 | NC(=O)C(CCNC(=O)C(CCNC(=O)c1cc(O)c(O)c(O)c1)NC(=O)c1cc(O)c(O)c(O)c1)NC(=O)C(CCNC(=O)c1cc(O)c(O)c(O)c1)NC(=O)c1cc(O)c(O)c(O)c1 (stereo not shown) [MSI 34 #6] | 0.6 µg/mL (≈ 0.648 µM) | 0.6 | 1 µg/mL (≈ 1.08 µM) | 1 | 
20 | NC(=O)C(CCCNC(=O)C(CCCNC(=O)c1cc(O)c(O)c(O)c1)NC(=O)c1cc(O)c(O)c(O)c1)NC(=O)C(CCCNC(=O)c1cc(O)c(O)c(O)c1)NC(=O)c1cc(O)c(O)c(O)c1 (stereo not shown) [MSI 34 #7] | 0.9 µg/mL (≈ 0.93 µM) | 0.9 | 1 µg/mL (≈ 1.03 µM) | 1 | 
21 | NC(=O)C(Cc1ccc(NC(=O)C(Cc2ccc(NC(=O)c3cc(O)c(O)c(O)c3)cc2)NC(=O)c2cc(O)c(O)c(O)c2)cc1)NC(=O)C(Cc1ccc(NC(=O)c2cc(O)c(O)c(O)c2)cc1)NC(=O)c1cc(O)c(O)c(O)c1 (stereo not shown) [MSI 34 #8] | 4 µg/mL (≈ 3.6 µM) | 4 | 3 µg/mL (≈ 2.7 µM) | 2 | 
22 | NC(=O)C(CNC(=O)c1cc(O)c(O)c(O)c1)NC(=O)C(CNC(=O)c1cc(O)c(O)c(O)c1)NC(=O)c1cc(O)c(O)c(O)c1 (stereo not shown) [MSI 34 #9] | 0.6 µg/mL (≈ 0.929 µM) | 0.9 | 0.5 µg/mL (≈ 0.775 µM) | 0.8 | 
23 | NC(=O)C(CCNC(=O)c1cc(O)c(O)c(O)c1)NC(=O)C(CCNC(=O)c1cc(O)c(O)c(O)c1)NC(=O)c1cc(O)c(O)c(O)c1 (stereo not shown) [MSI 34 #10] | 0.6 µg/mL (≈ 0.891 µM) | 0.9 | 0.7 µg/mL (≈ 1.04 µM) | 1 | 
24 | NC(=O)C(CCCNC(=O)c1cc(O)c(O)c(O)c1)NC(=O)C(CCCNC(=O)c1cc(O)c(O)c(O)c1)NC(=O)c1cc(O)c(O)c(O)c1 (stereo not shown) [MSI 34 #11] | 1 µg/mL (≈ 1.43 µM) | 2 | 0.8 µg/mL (≈ 1.14 µM) | 1 | 
25 | NC(=O)C(Cc1ccc(NC(=O)c2cc(O)c(O)c(O)c2)cc1)NC(=O)C(Cc1ccc(NC(=O)c2cc(O)c(O)c(O)c2)cc1)NC(=O)c1cc(O)c(O)c(O)c1 (stereo not shown) [MSI 34 #12] | 6 µg/mL (≈ 7.52 µM) | 8 | 4 µg/mL (≈ 5.01 µM) | 5 | 
